Measurements: patent publication US12364702B2, “Highly active sting protein agonist compound” (ADLAI NORTYE BIOPHARMA CO., LTD., priority 2018, dated 2025)

Legend:
Type in all cases: cell-based
STING WT variant [1] = target: T1, STING WT variant (Homo sapiens, UniProt Q86WV6); test: SEAP reporter assay in HEK-Blue ISG KO-STING cells transfected with STING WT variant (Method 2); parameters: key: ratio of compound SEAP signal to 0.5% DMSO; details: 1 ng STING vector (WT variant), compound 2.5 uM, 24 h, SEAP signal vs 0.5% DMSO
T1 construct: host or cells: HEK-Blue ISG KO-STING cells (Invivogen, hkb-kostg)
Source text: (§1) Activation of STING can be determined using a SEAP reporter assay in HEK-Blue™ ISG KO-STING cells (Invivogen, cat #hkb-kostg) transfected with plasmids expressing STING variants (WT & HAQ) (referred to WO2017/175147A1). STING variants (WT & HAQ) vector were constructed based on STING-232H vector (Origene, RC208418). GFP vector (VT2069) was bought from Youbio. The detailed protocol as follows: HEK-Blue™ ISG KO-STING cells were harvest and seeding into 96 well plate and the final cell number was 0.8×10^5 cells/well. Transfections were prepared using Lipofectamine 2000 (Invitrogen, Cat #11668-027) following the manufacturer's instructions (Lipo2000/DNA=1/10), 20 ul of transfection suspension containing 1 ng (WT variant) or 0.0625 ng (HAQ variant) STING vector was added to cell culture plate and incubated at 37° C., 5% CO2 for 24 hours. After 24 hours incubation, compounds were added at proper concentration, the final DMSO concentration was 0.5%. After 24 h incubation, the supernatant was collected to detect SEAP signal using Great EscAPe SEAP chemiluminescence KIT (Clontech, cat #631738) and cells were collected to detect cell viability using CellTiter-Glo Luminescent Cell Viability Assay (Promega, cat #G7573) following the manufacturer's instructions. The data were described by the ratio of the stimulating signal of compounds to 0.5% DMSO.

STING HAQ variant [2] = target: T2, STING HAQ variant (Homo sapiens, UniProt Q86WV6, G230A/R293Q/R71H); test: SEAP reporter assay in HEK-Blue ISG KO-STING cells transfected with STING HAQ variant (Method 1); details: compound 7.8 uM, 24 h, SEAP signal vs 0.5% DMSO
T2 construct: host or cells: HEK-Blue ISG KO-STING cells (Invivogen, hkb-kostg)
T2 sequence (Q86WV6 whole entry R71H/G230A/R293Q): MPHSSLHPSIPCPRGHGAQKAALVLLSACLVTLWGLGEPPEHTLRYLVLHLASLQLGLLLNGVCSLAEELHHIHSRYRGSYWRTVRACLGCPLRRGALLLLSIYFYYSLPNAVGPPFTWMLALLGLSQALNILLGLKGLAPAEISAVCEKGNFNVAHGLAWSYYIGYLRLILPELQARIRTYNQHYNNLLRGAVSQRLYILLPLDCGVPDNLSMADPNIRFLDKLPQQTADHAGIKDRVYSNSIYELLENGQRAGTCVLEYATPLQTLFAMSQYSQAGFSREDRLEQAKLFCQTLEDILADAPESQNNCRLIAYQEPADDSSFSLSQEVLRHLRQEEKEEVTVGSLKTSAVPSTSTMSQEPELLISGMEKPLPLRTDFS
How it was run: (§2)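 HEK-Blue ISG KO-STING cells transfected with 1 ng STING variant plasmid for 24 h at 37 °C, then compound-treated 24 h (0.5% DMSO final). SEAP chemiluminescence read in supernatant; viability by CellTiter-Glo. Values are compound signal relative to 0.5% DMSO.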

STING HAQ variant [3] = target: T2, STING HAQ variant; test: SEAP reporter assay in HEK-Blue ISG KO-STING cells transfected with STING HAQ variant (Method 2); parameters: key: ratio of compound SEAP signal to 0.5% DMSO; details: 0.0625 ng STING vector (HAQ variant), compound 5 uM, 24 h, SEAP signal vs 0.5% DMSO
Source text: as §1

STING = STING (Homo sapiens, UniProt Q86WV6); test: IFN-β secretion from THP1 by STING activation (hIFNβ ELISA); details: THP1 cells, 24 h incubation, IFN-β in supernatant, top dose set according to solubility; for EC50: read-out: hIFNβ ELISA (EC50)
STING, sequence (Q86WV6 whole entry): as the sequence (Q86WV6 whole entry R71H/G230A/R293Q) above, with H71R, A230G, Q293R counted along it
How it was run: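 THP1 cells (2×10^6 cells/ml) exposed 24 h at 37° C, 5% CO2 to 8-point, 3-fold compound dilutions, 0.2% DMSO final, top dose set by solubility. Secreted IFN-β in supernatant measured by human IFNβ ELISA; EC50 from curve fitting.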

STING WT variant [4] = target: T1, STING WT variant; test: SEAP reporter assay in HEK-Blue ISG KO-STING cells transfected with STING WT variant (Method 1); details: compound 7.8 uM, 24 h, SEAP signal vs 0.5% DMSO
How it was run: as §2

| Fold change related to DMSO control WT (STING WT variant [1]) | Fold change related to DMSO control HAQ (STING HAQ variant [2]) | Fold change related to DMSO control HAQ (STING HAQ variant [3]) | EC50 (STING) [nM] | Fold change related to DMSO control WT (STING WT variant [4]) | hIFNβ ELISA (EC50, μM) (STING) | Compound |
| --- | --- | --- | --- | --- | --- | --- |
| 10.04 | – | 17.42 | 2200 | – | – | CCn1nc(C)cc1C(=O)Nc1nc2cc(C(N)=O)cc(OCCCNC(=O)CN3CCC(OC)CC3)c2n1CCC[C@H]1COc2cc(C(N)=O)cc3nc(NC(=O)c4cc(C)nn4CC)n1c23 [Example 42, (S)-3-(3-(5-carbamoyl-2-(1-ethyl-3-methyl-1H-pyrazole-5-carboxamido)-7-(3-(2-(4-methoxypiperidin-1-yl)acetamido)propoxy)-1H-benzo[d]imidazol-1-yl)propyl)-2-(1-ethyl-3-methyl-1H-pyrazole-5-carboxamido)-3,4-dihydro-5-oxa-1,2a-diazaacenaphthylene-7-carboxamide] |
| 6.47 | – | 31.46 | > 39700 | – | – | CCn1nc(C)cc1C(=O)Nc1nc2cc(C(N)=O)cc(OCCCNS(=O)(=O)CCN)c2n1CCC[C@H]1COc2cc(C(N)=O)cc3nc(NC(=O)c4cc(C)nn4CC)n1c23 [Example 44, (S)-3-(3-(7-(3-(2-aminoethylsulfonamido)propoxy)-5-carbamoyl-2-(1-ethyl-3-methyl-1H-pyrazole-5-carboxamido)-1H-benzo[d]imidazol-1-yl)propyl)-2-(1-ethyl-3-methyl-1H-pyrazole-5-carboxamido)-3,4-dihydro-5-oxa-1,2a-diazaacenaphthylene-7-carboxamide] |
| 10.85 | – | 17.39 | 1200 | – | – | CCn1nc(C)cc1C(=O)Nc1nc2cc(C(N)=O)cc(OCCCNC(=O)CN3CCOCC3)c2n1CCC[C@H]1COc2cc(C(N)=O)cc3nc(NC(=O)c4c(F)c(C)nn4CC)n1c23 [Example 53, (S)-3-(3-(5-carbamoyl-2-(1-ethyl-3-methyl-1H-pyrazole-5-carboxamido)-7-(3-(2-morpholinoacetamido)propoxy)-1H-benzo[d]imidazol-1-yl)propyl)-2-(1-ethyl-4-fluoro-3-methyl-1H-pyrazole-5-carboxamido)-3,4-dihydro-5-oxa-1,2a-diazaacenaphthylene-7-carboxamide] |
| 7.12 | – | 19.89 | 4600 | – | – | CCn1nc(C)cc1C(=O)Nc1nc2cc(C(N)=O)cc(OCCCNC(=O)CN3CC(OC)C3)c2n1CCC[C@H]1COc2cc(C(N)=O)cc3nc(NC(=O)c4cc(C)nn4CC)n1c23 [Example 43, (S)-3-(3-(5-carbamoyl-2-(1-ethyl-3-methyl-1H-pyrazole-5-carboxamido)-7-(3-(2-(3-methoxyazetidin-1-yl)acetamido)propoxy)-1H-benzo[d]imidazol-1-yl)propyl)-2-(1-ethyl-3-methyl-1H-pyrazole-5-carboxamido)-3,4-dihydro-5-oxa-1,2a-diazaacenaphthylene-7-carboxamide] |

More lines, now with the values behind:

| Compound | Fold change related to DMSO control WT (STING WT variant [1]) | Fold change related to DMSO control HAQ (STING HAQ variant [2]) | Fold change related to DMSO control HAQ (STING HAQ variant [3]) | EC50 (STING) [nM] | Fold change related to DMSO control WT (STING WT variant [4]) | hIFNβ ELISA (EC50, μM) (STING) |
| --- | --- | --- | --- | --- | --- | --- |
| CCn1nc(C)cc1C(=O)Nc1nc2cc(C(N)=O)cc(OCCCOC)c2n1CCC[C@H]1COc2cc(C(N)=O)cc3nc(NC(=O)c4cc(C)nn4CC)n1c23 [Example 1, (S)-3-(3-(5-Carbamoyl-2-(1-ethyl-3-methyl-1H-pyrazole-5-carboxamido)-7-(3-methoxypropoxy)-1H-benzo[d]imidazol-1-yl)propyl)-2-(1-ethyl-3-methyl-1H-pyrazole-5-carboxamido)-3,4-dihydro-5-oxa-1,2a-diazaacenaphthylene-7-carboxamide] | 13.65 | 36.93 | 24.13 | 2100 | 2.29 | – |
| CCn1nc(C)cc1C(=O)Nc1nc2cc(C(N)=O)cc(OCCCNC(=O)CN(C)C)c2n1CCC[C@H]1COc2cc(C(N)=O)cc3nc(NC(=O)c4c(F)c(C)nn4CC)n1c23 [Example 52, (S)-3-(3-(5-carbamoyl-7-(3-(2-(dimethylamino)acetamido)propoxy)-2-(1-ethyl-3-methyl-1H-pyrazole-5-carboxamido)-1H-benzo[d]imidazol-1-yl)propyl)-2-(1-ethyl-4-fluoro-3-methyl-1H-pyrazole-5-carboxamido)-3,4-dihydro-5-oxa-1,2a-diazaacenaphthylene-7-carboxamide] | 11.79 | – | 18.32 | > 50000 | – | – |
| CCn1nc(C)c(F)c1C(=O)Nc1nc2cc(C(N)=O)cc(OCCCOC)c2n1CCC[C@H]1COc2cc(C(N)=O)cc3nc(NC(=O)c4c(F)c(C)nn4CC)n1c23 [Example 49, (S)-3-(3-(5-carbamoyl-2-(1-ethyl-4-fluoro-3-methyl-1H-pyrazole-5-carboxamido)-7-(3-methoxypropoxy)-1H-benzo[d]imidazol-1-yl)propyl)-2-(1-ethyl-4-fluoro-3-methyl-1H-pyrazole-5-carboxamido)-3,4-dihydro-5-oxa-1,2a-diazaacenaphthylene-7-carboxamide] | 11.17 | – | 27.58 | 500 | – | – |
| CCn1nc(C)cc1C(=O)Nc1nc2cc(C(N)=O)cc(OCCCNC(=O)CN3CCOCC3)c2n1CCC[C@H]1COc2cc(C#N)cc3nc(NC(=O)c4cc(C)nn4CC)n1c23 [Example 47, (S)-1-(3-(7-cyano-2-(1-ethyl-3-methyl-1H-pyrazole-5-carboxamido)-3,4-dihydro-5-oxa-1,2a-diazaacenaphthylen-3-yl)propyl)-2-(1-ethyl-3-methyl-1H-pyrazole-5-carboxamido)-7-(3-(2-morpholinoacetamido)propoxy)-1H-benzo[d]imidazole-5-carboxamide] | 9.80 | – | 9.16 | – | – | inactive |
